Reference: patent publication US7767240B2, “Microbiological control in poultry processing” (priority 2001, dated 2010)

Legend:
[1] = test system: biofilm-associated HPC (heterotrophic plate count) bacteria; assay: HPC bacteria eradication in biofilm, PVC sampling pipes; type: cell-based
Text: In another group of tests, the results of which are depicted in FIGS. 5 through 10, several bromine-based microbiocides of this invention were utilized in tests illustrating their effectiveness in eradicating or controlling Heterotrophic Plate Count bacteria i.e., a mixture of naturally-occurring pathogenic bacteria of various unidentified species. These bacteria were challenged both in the form of biofilms and in planktonic form.
The experimental conditions utilized in these tests involved use of an apparatus consisting of three parallel transparent PVC sampling pipes. These pipes were used for collection of biofilm (i.e., sessile or surface attached) bacteria samples; one as control pipe, one for a relatively low biocide concentration and the third for a higher biocide concentration. The biocide challenge in each case was divided into three phases. First was a 14-day inoculation. Next was a 48-hour disinfection period. Finally a 2-week recovery period was provided. The biocide under test was slug-dosed and during the first hour of exposure, the concentration was adjusted to achieve the desired concentration level.
The source of the naturally-grown heterotrophic plate count (HPC) bacteria was sediment and associated water collected from the recirculating hot water system of a hospital. […]

[2] = test system: total bacteria (S. sonnei, L. monocytogenes, E. coli, S. enteritidis, P. aeruginosa, C. jejuni); assay: Total bacteria reduction from control over 20-day storage (Example 4); type: cell-based; details: pH 8
Protocol: A study was conducted to determine the effect of Clorox® bleach, and 1,3-dibromo-5,5-dimethylhydantoin (DBDMH) on carcass bacteria residual after 1.5 hour in a chill tank solution and spoilage 20-day shelf life longevity (caused by bacteria contamination). Tests were conducted at pH 8 (adjusted by trisodium phosphate). Skin pigmentation (Minolta Color Meter L value or Lightness, a value or redness and b value or yellowness) were determined before and post-processing.
In general the study involved normal processing of 56-day-old birds, immersing carcasses first in a warm bath containing 10^4 per mL Escherichia coli, 10^4 per mL Salmonella enteritidis, 10^4 per mL Pseudomonas aeruginosa, 10^4 per mL Campylobacter jejuni, and 10^4 per mL spoilage bacteria each from […] strains (Listeria monocytogenes and Shigella sonnei). Carcass were then immersed in a chill tank “soup”, containing normal organic fluids (blood, fat, skin, and meat particles) and containing various disinfectants (termed test materials).
A DBDMH stock solution and test solutions, a bacteria stock solution, and a “chicken soup” were prepared as in Example 3. In addition, the bacterial broth treatments, the whole bird wash sampling procedure, and the methodologies used for quantitative or qualitative determinations for bacterial organisms were conducted as in Example 3.
In greater detail the trial events and experimental design used in this group of tests were as follows: • a) Test microorganisms used were: • Escherichia coli ATCC 11229 • Pseudomonas aeruginosa ATCC 15442 • Salmonella enteritidis ATCC 13076 • Shigella sonnei ATCC 9290 • Listeria monocytogenes ATCC 7644 • Campylobacter jejuni ATCC 29428 • b) Test Procedure: All test strains were grown individually at 35° C. for 24 hours in the media specified in Table 12. Cells were harvested by centrifugation at 10,000×g for 10 minutes and washed twice with Butterfield's Phosphate Buffer (BPB of pH 7.2). Cells were resuspended in BPB to obtain a cell suspension of approximately 1.0×10^8 CFU/mL for each microorganism. The target inoculum levels were approximately 10^6 CFU/mL in the final test solutions. In the cases of S. enteritidis and P. aeruginosa the species were washed by pouring into prepared sterile centrifuge tubes with cheesecloth filters. The culture was then pelleted and washed using above techniques and repeated 3 times. • c) The birds (56 days old) were processed under normal commercial conditions. • d) The bacteria were added to a large batch of the “chicken soup”, and then aliquots of the resultant mixture were distributed equally among the chill waters used for each test. Then the particular disinfectant composition under test was added to one of the chill waters. […]

CC1(C)C(=O)N(Br)C(=O)N1Br [DBDMH, 1,3-dibromo-5,5-dimethylhydantoin]
biofilm-associated HPC bacteria eradicated ([1]; 0.5 ppm as bromine, within three hours): over 99% | biofilm-associated HPC bacteria eradicated ([1]; 5 ppm as bromine, within twelve hours): ~99.9% | Percentage of Total Bacteria Reduction From Control (Mean % Reduction From Control) ([2]; Day 0 post-processing, 10 ppm): 77.8% | Percentage of Total Bacteria Reduction From Control (Mean % Reduction From Control) ([2]; Day 0 post-processing, 20 ppm): 99.5% | Percentage of Total Bacteria Reduction From Control (Mean % Reduction From Control) ([2]; Day 2 post-processing, 10 ppm): 77.3% | Percentage of Total Bacteria Reduction From Control (Mean % Reduction From Control) ([2]; Day 2 post-processing, 20 ppm): 99.4% | Percentage of Total Bacteria Reduction From Control (Mean % Reduction From Control) ([2]; Day 4 post-processing, 10 ppm): 76.8% | Percentage of Total Bacteria Reduction From Control (Mean % Reduction From Control) ([2]; Day 4 post-processing, 20 ppm): 99.2% | Percentage of Total Bacteria Reduction From Control (Mean % Reduction From Control) ([2]; Day 6 post-processing, 10 ppm): 77.1% | Percentage of Total Bacteria Reduction From Control (Mean % Reduction From Control) ([2]; Day 6 post-processing, 20 ppm): 98.5% | Percentage of Total Bacteria Reduction From Control (Mean % Reduction From Control) ([2]; Day 8 post-processing, 10 ppm): 74.6% | Percentage of Total Bacteria Reduction From Control (Mean % Reduction From Control) ([2]; Day 8 post-processing, 20 ppm): 97.3% | Percentage of Total Bacteria Reduction From Control (Mean % Reduction From Control) ([2]; Day 10 post-processing, 10 ppm): 71.9% | Percentage of Total Bacteria Reduction From Control (Mean % Reduction From Control) ([2]; Day 10 post-processing, 20 ppm): 95.1% | Percentage of Total Bacteria Reduction From Control (Mean % Reduction From Control) ([2]; Day 12 post-processing, 10 ppm): 69.2% | Percentage of Total Bacteria Reduction From Control (Mean % Reduction From Control) ([2]; Day 12 post-processing, 20 ppm): 91.2% | Percentage of Total Bacteria Reduction From Control (Mean % Reduction From Control) ([2]; Day 14 post-processing, 10 ppm): 66.2% | Percentage of Total Bacteria Reduction From Control (Mean % Reduction From Control) ([2]; Day 14 post-processing, 20 ppm): 84.3% | Percentage of Total Bacteria Reduction From Control (Mean % Reduction From Control) ([2]; Day 16 post-processing, 10 ppm): 61.9% | Percentage of Total Bacteria Reduction From Control (Mean % Reduction From Control) ([2]; Day 16 post-processing, 20 ppm): 71.2% | Percentage of Total Bacteria Reduction From Control (Mean % Reduction From Control) ([2]; Day 18 post-processing, 10 ppm): 58.5% | Percentage of Total Bacteria Reduction From Control (Mean % Reduction From Control) ([2]; Day 18 post-processing, 20 ppm): 68.0% | Percentage of Total Bacteria Reduction From Control (Mean % Reduction From Control) ([2]; Day 20 post-processing, 10 ppm): 53.7% | Percentage of Total Bacteria Reduction From Control (Mean % Reduction From Control) ([2]; Day 20 post-processing, 20 ppm): 67.2%
